Results on 83 molecules are retold here after patent US20070213359A1 (ACADIA Pharmaceuticals Inc., priority 2005, published 2007).

Each structure is given as a SMILES string.

Chain of Ghrelin receptor (Q92847 whole entry): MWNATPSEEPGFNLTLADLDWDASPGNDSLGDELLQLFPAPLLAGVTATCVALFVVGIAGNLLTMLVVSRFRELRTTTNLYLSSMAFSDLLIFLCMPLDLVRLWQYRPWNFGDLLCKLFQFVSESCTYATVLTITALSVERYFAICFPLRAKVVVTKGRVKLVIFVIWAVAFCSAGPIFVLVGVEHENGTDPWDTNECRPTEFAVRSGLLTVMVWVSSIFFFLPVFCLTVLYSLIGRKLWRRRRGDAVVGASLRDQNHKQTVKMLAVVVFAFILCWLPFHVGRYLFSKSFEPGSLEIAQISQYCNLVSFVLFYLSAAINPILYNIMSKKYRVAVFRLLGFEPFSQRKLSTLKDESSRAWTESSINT

The first assay concerns the target Ghrelin receptor (Homo sapiens, UniProt Q92847). Kind of assay: Receptor Selection and Amplification Technology (R-SAT) assay. Format: cell-based. Set-up: expressed in transfected cells; host or cells: NIH3T3. Conditions: negative logarithm of ligand concentration causing 50% inhibition of constitutive receptor response; transfected NIH3T3 cells; '—' not defined (nd used separately); read-out: RSAT pIC50 (converted).
For `O=C(c1cn(CCCN2C3CCC2CC(O)(c2ccc(F)cc2)C3)c2ccccc12)C(F)(F)F` (stereo not shown), the IC50 is 251 µM.
Consider `CC(=O)c1cn(CCCN2CCC(C(=O)c3ccccc3)CC2)c2c(Cl)cccc12`, for which the IC50 is 1580 µM.

Still in this assay, the particulars now being: percent inhibition at saturating ligand, normalized to reference ligand Substance P analog = 100%; read-out: RSAT Eff(%).
For `O=C(c1cn(CCCN2C3CCC2CC(O)(c2ccc(F)cc2)C3)c2ccccc12)C(F)(F)F` (stereo not shown), the Emax was 58%.
Turning to `CC(=O)c1cn(CCCN2CCC(C(=O)c3ccccc3)CC2)c2c(Cl)cccc12`, the Emax came to 92%.
The same measure, in the same setting: under `COc1cccc2c(C#N)cn(CCCN3CCC(c4nc(-c5ccncc5)no4)CC3)c12` stands 40%; under `O=C(c1cn(CCCN2CCCC(Cc3ccccc3Cl)C2)c2ncccc12)C(F)(F)F` (stereo not shown), 27%; under `O=C(c1cn(CCCN2CCC(Oc3cccc(Cl)c3)CC2)c2ncccc12)C(F)(F)F`, 23%.
Still for that read-out and setting: under `CC(CN1C2CCC1CC(Oc1ccc(F)cc1)C2)Cn1cc(C(=O)C(F)(F)F)c2cccnc21` (stereo not shown) stands 35%.
For the molecule `CC(=O)c1cn(CCCN2CCCC(Oc3ccc(Cl)cc3)C2)c2ncccc12` (stereo not shown), the Emax came out at 53%.
For the molecule `COc1cccc2c(C#N)cn(CCCN3CCCC(Oc4ccc(Cl)cc4)C3)c12` (stereo not shown), the Emax worked out at 48%.
Turning to `COc1ccc2[nH]c3c(c2c1)CCN(CC(C)Cn1c(=O)sc2ccccc21)C3` (stereo not shown), the Emax was -10%.
Still for that read-out and setting: for `COc1ccc2[nH]c3c(c2c1)CCN(CCCCn1cc(C(C)=O)c2ccccc21)C3` the value was 9%; for `COc1cccc2c(C#N)cn(CCCN3CCN(CCOc4ccc(Cl)c5ccccc45)CC3)c12`, 21%.
In the case of `CC(CN1CCC2(CC1)CC(=O)c1ccccc1O2)Cn1cc(C(=O)C(F)(F)F)c2cccnc21` (stereo not shown), the Emax stood at 26%.
Still for that read-out and setting: under `O=C(c1cn(CCCN2CCCC(Oc3ccc(Cl)cc3)C2)c2ncccc12)C(F)(F)F` (stereo not shown) stands 2%; under `O=C(c1cn(CCCN2CCC(CCOc3ccc(Cl)cc3)CC2)c2ncccc12)C(F)(F)F`, 37%.
The same measure, in the same setting: under `COc1cccc2c(C#N)cn(CCCN3CCC4(CC3)CC(=O)c3ccccc3O4)c12` stands 41%; under `COc1cccc2c(C#N)cn(CCCN3CCC(CCOc4ccc(Cl)cc4)CC3)c12`, -3%.
On the same count and under the same terms, under `O=C(c1cn(CCCNC2Cc3ccccc3C2)c2ncccc12)C(F)(F)F` stands -3%.
Turning to `O=C(c1cn(CCCN2CCN(c3ncc(C(F)(F)F)cc3Cl)CC2)c2ncccc12)C(F)(F)F`, the Emax came to 27%.
Still for that read-out and setting: for `O=C(c1cn(CCCN2CCN(CCOc3ccc(Cl)cc3)CC2)c2ncccc12)C(F)(F)F` the value was 38%; for `O=C(c1cn(CCCNCCOc2ccccc2)c2ncccc12)C(F)(F)F`, 26%.
On the same count and under the same terms, for `O=C(c1cn(CCCN2CCCN(CCc3ccccc3)CC2)c2ncccc12)C(F)(F)F` the value was 51%; for `O=C(c1cn(CCCN2CCC(c3nc(-c4ccncc4)no3)CC2)c2ncccc12)C(F)(F)F`, 31%.
The same measure, in the same setting: for `O=C(c1cn(CCCN2CCC(c3nc(-c4cccnc4)no3)CC2)c2ncccc12)C(F)(F)F` the value was 72%.
On to `CC(=O)c1cn(CCCN2CCN(CCOc3ccc(Cl)cc3)CC2)c2ncccc12`, for which the Emax came out at 62%.
As to `CC(=O)c1cn(CCCN2CCC(c3nc(-c4ccncc4)no3)CC2)c2ncccc12`, the Emax was 88%.
The same measure, in the same setting: under `COc1cccc2c(C#N)cn(CCCN3CCN(CCOc4ccc(Cl)cc4)CC3)c12` stands -23%; under `COc1cccc2c(C#N)cn(CCCN3CCN(CCOc4ccccc4)CC3)c12`, 42%; under `COc1cccc2c(C#N)cn(CCCN3CCN(Cc4ccc(Cl)cc4Cl)CC3)c12`, 30%.
On to `COc1cccc2c(C#N)cn(CCCN3CCC(c4nc(-c5cccnc5)no4)CC3)c12`, for which the Emax came out at 23%.
For `O=C(c1cn(CCCN2CCN(CCOc3ccccc3)CC2)c2ncccc12)C(F)(F)F`, the Emax worked out at 27%.
For the molecule `CC(=O)c1cn(CCCN2C3CCC2CC(CC(=O)c2ccc(Cl)cc2)C3)c2ncccc12` (stereo not shown), the Emax was determined as 11%.

The same assay, now with this note: read-out: RSAT Eff(%).
`CC(=O)c1c(C)n(CCCN2CCCC(Oc3ccc(Cl)cc3)C2)c2c(Br)cccc12` (stereo not shown): the Emax came to 24%.
Still for that read-out and setting: under `CC(=O)c1c(C)n(CCCN2CCCC(Cc3ccccc3Cl)C2)c2c(Br)cccc12` (stereo not shown) stands 5%; under `CC(=O)c1c(C)n(CCCN2CCC(Cc3ccccc3Cl)C2)c2c(Br)cccc12` (stereo not shown), 38%; under `COc1cccc2c(C(C)=O)cn(CC(C)CN3CCCC(Oc4ccc(Cl)cc4)C3)c12` (stereo not shown), -1%.
Still for that read-out and setting: under `COc1cccc2c(C(C)=O)cn(CC(C)CN3C4CCC3CC(Oc3ccc(F)cc3)C4)c12` (stereo not shown) stands 44%; under `COc1cccc2c(C(C)=O)cn(CC(C)CN3CCC(CCOc4ccc(Cl)cc4)CC3)c12` (stereo not shown), 22%; under `CC(=O)c1cn(CCCN2CCCC(Oc3ccc(Cl)cc3)C2)c2c(C#N)cccc12` (stereo not shown), 31%.
Same read-out and setting: for `CC(=O)c1cn(CCCN2C3CCC2CC(CC(=O)c2ccc(Cl)cc2)C3)c2c(C#N)cccc12` (stereo not shown) the value was 31%; for `CCCCC1CCN(CCn2cc(C(C)=O)c3ccccc32)CC1`, 23%.
`CC(=O)c1cn(CC(C)CN2CCC(C(=O)c3ccccc3)CC2)c2ccccc12` (stereo not shown): the Emax is 2%.
For `CC(=O)c1cn(CCCCN2CCC(C(=O)c3ccccc3)CC2)c2ccccc12`, the Emax is 38%.
Still for that read-out and setting: for `CC(=O)c1cn(CCCCN2CCC(Oc3ccc(F)cc3)CC2)c2ccccc12` the value was 41%; for `CC(=O)c1cn(CC(O)CN2CCN(C(C)c3ccccc3)CC2)c2ccccc12` (stereo not shown), 23%.
Still for that read-out and setting: for `CC(=O)c1cn(CC(C)CN2CCC(O)(Cc3ccccc3)CC2)c2ccccc12` (stereo not shown) the value was -3%; for `CC(=O)c1cn(CCCCN2CCC(O)(Cc3ccccc3)CC2)c2ccccc12`, 24%.
The same measure, in the same setting: under `CC(=O)c1cn(CCCCN2C3CCC2CC(O)(c2ccc(F)cc2)C3)c2ccccc12` (stereo not shown) stands 2%; under `CCC(=O)c1cn(CCCN2C3CCC2CC(O)(c2ccc(F)cc2)C3)c2ccccc12` (stereo not shown), 18%.
For `O=C(c1cn(CCCN2CCC(S(=O)(=O)c3ccc(Cl)cc3)CC2)c2ccccc12)C(F)(F)F`, the Emax was determined as 6%.
`CCC(=O)c1cn(CCCN2CCC(S(=O)(=O)c3ccc(Cl)cc3)CC2)c2ccccc12`: the Emax was 1%.
As for `CCN(CC)C(=O)C1CCCN(CCCn2cc(C(C)=O)c3cccc(OC)c32)C1` (stereo not shown), the Emax came to 16%.
Turning to `COc1cccc2c(C(C)=O)cn(CCCN3C4CCC3CC(O)(c3ccc(F)cc3)C4)c12` (stereo not shown), the Emax is 3%.
Same read-out and setting: under `CC(=O)c1cn(CCCN2CCC(CCOc3ccc(Cl)cc3)CC2)c2c(Cl)cccc12` stands 53%; under `CC(=O)c1cn(CCCN2CCN(CCOc3ccc(Cl)cc3)CC2)c2c(C)cccc12`, 53%; under `CC(=O)c1cn(CCCN2CCN(CCOc3ccc(Cl)cc3)CC2)c2c(Br)cccc12`, 12%.
`COc1cccc2c(C(=O)C3CC3)cn(CCCN3CCN(CCOc4ccc(Cl)c5ccccc45)CC3)c12`: the Emax was 44%.
With `CC(=O)c1cn(CCCN2CCN(CCOc3ccc(Cl)cc3)CC2)c2c(Cl)cccc12`, the Emax stood at 32%.
For the molecule `COc1cccc2c(C(=O)NCc3cccc(C)c3)cn(CCCN3CCN(CCOc4ccc(Cl)c5ccccc45)CC3)c12`, the Emax was 2%.
On the same count and under the same terms, for `COc1cccc2c(C(=O)NCc3cccc(Cl)c3)cn(CCCN3CCN(CCOc4ccc(Cl)c5ccccc45)CC3)c12` the value was 59%.
On the same count and under the same terms, under `CC(=O)c1c(C)n(CCCN2CCC3(CC2)CC(=O)c2ccccc2O3)c2c(Br)cccc12` stands 8%; under `CCc1cccc2c(C(C)=O)cn(CCCN3CCCC(Oc4ccc(Cl)cc4)C3)c12` (stereo not shown), 13%.
Still for that read-out and setting: under `COc1cccc2c(C(C)=O)cn(CC(C)CN3CCC4(CC3)CC(=O)c3ccccc3O4)c12` (stereo not shown) stands 55%; under `CC(=O)c1cn(CCCN2CCC(CCOc3ccc(Cl)cc3)CC2)c2c(C#N)cccc12`, 27%.
Take `CC(=O)c1c(C)n(CCCN2CCN(CCOc3ccc(Cl)cc3)CC2)c2c(Br)cccc12`: the Emax was -13%.
The same measure, in the same setting: under `CC(=O)c1c(C)n(CCCN2CCC(c3nc(-c4ccncc4)no3)CC2)c2c(Br)cccc12` stands 25%; under `CC(=O)c1c(C)n(CCCN2CCC(c3nc(-c4cccnc4)no3)CC2)c2c(Br)cccc12`, 12%; under `CCc1cccc2c(C(C)=O)cn(CCCN3CCN(CCOc4ccc(Cl)cc4)CC3)c12`, 24%.
Still for that read-out and setting: under `CCc1cccc2c(C(C)=O)cn(CCCN3CCC(c4nc(-c5cccnc5)no4)CC3)c12` stands 61%; under `COc1cccc2c(C(C)=O)cn(CC(C)CNCCOc3ccccc3)c12` (stereo not shown), 29%.
Regarding `COc1cccc2c(C(C)=O)cn(CC(C)CN3CCN(CCOc4ccccc4)CC3)c12` (stereo not shown), the Emax is -7%.
The same measure, in the same setting: for `COc1cccc2c(C(C)=O)cn(CC(C)CN3CCCN(CCc4ccccc4)CC3)c12` (stereo not shown) the value was 31%.
With `COc1cccc2c(C(C)=O)cn(CC(C)CN3CCC(c4nc(-c5ccncc5)no4)CC3)c12` (stereo not shown), the Emax was determined as 78%.
For `COc1cccc2c(C(C)=O)cn(CC(C)CN3CCC(c4nc(-c5cccnc5)no4)CC3)c12` (stereo not shown), the Emax stood at 83%.
Still for that read-out and setting: under `COc1cccc2c(C(=O)Cc3ccccc3)cn(CCCN3CCN(CCOc4ccc(Cl)c5ccccc45)CC3)c12` stands 46%.
The same measure, in the same setting: for `CC(=O)c1cn(CCCN2CCN(CCOc3ccc(Cl)cc3)CC2)c2c(C#N)cccc12` the value was 4%; for `CC(=O)c1cn(CCCNCCOc2ccccc2)c2c(C#N)cccc12`, 11%; for `CC(=O)c1cn(CCCN2CCN(CCOc3ccc(Cl)c4ccccc34)CC2)c2c(C#N)cccc12`, 53%.
Same read-out and setting: for `CC(=O)c1cn(CCCN2CCCC(Cc3ccccc3Cl)C2)c2c(C)cccc12` (stereo not shown) the value was 38%.
For the molecule `CC(=O)c1cn(CCCN2CCC(Cc3ccccc3Cl)C2)c2c(C)cccc12` (stereo not shown), the Emax stood at 47%.
The same measure, in the same setting: for `CC(=O)c1cn(CCCN2C3CCC2CC(CC(=O)c2ccc(Cl)cc2)C3)c2c(C)cccc12` (stereo not shown) the value was 19%; for `CC(=O)c1cn(CCCN2CCC3(CC2)CC(=O)c2ccccc2O3)c2c(Br)cccc12`, 3%.
Same read-out and setting: under `CC(=O)c1cn(CCCN2CCCC(Cc3ccccc3Cl)C2)c2c(Br)cccc12` (stereo not shown) stands -18%.
In the case of `CC(=O)c1cn(CCCN2C3CCC2CC(CC(=O)c2ccc(Cl)cc2)C3)c2c(Br)cccc12` (stereo not shown), the Emax turned out to be 33%.
